The supplement of paper PMC10627819

Tests used:
Assay in all cases: Bliss interaction score (quartile over a dose matrix) (fitness difference); higher = more antagonism (negative = synergy)
B. subtilis 168 = test system: B. subtilis 168
In short: (§1)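 Each OD595 reading at entry into stationary phase was scaled to the robust mean of the untreated wells on its plate, with a ceiling of 1. These ratios define fitness, and single-drug fitness was inferred from combinations. The Bliss score compares observed fitness with the product-based expectation and is reported as quartiles across all replicate types, technical, biological and donor/recipient.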

S. aureus DSM 20231 = test system: S. aureus DSM 20231
In short: as §1

S. aureus Newman = test system: S. aureus Newman
In short: as §1

S. pneumoniae D39V = test system: S. pneumoniae D39V
In short: as §1
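Note: first quartile when negative (synergy) and third quartile when positive (antagonism).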

| Compound | Bliss interaction score (B. subtilis 168) | Bliss interaction score (S. aureus DSM 20231) | Bliss interaction score (S. aureus Newman) | Bliss interaction score (S. pneumoniae D39V) | Bliss interaction score (B. subtilis 168; main component drawn) | Bliss interaction score (S. aureus DSM 20231; main component drawn) | Bliss interaction score (S. aureus Newman; main component drawn) | Bliss interaction score (S. pneumoniae D39V; main component drawn) |
| --- | --- | --- | --- | --- | --- | --- | --- | --- |
| CN(C)C(=O)C(CCN1CCC(O)(c2ccc(Cl)cc2)CC1)(c1ccccc1)c1ccccc1 [Loperamide] + CO[C@@]12[C@H](COC(N)=O)C3=C(C(=O)C(C)=C(N)C3=O)N1C[C@@H]1N[C@@H]12 [MitomycinC] | 0.0277 | 0.101 | -0.031 | 0.105 | – | – | – | – |
| CO/N=C(\C(=O)N[C@@H]1C(=O)N2C(C(=O)[O-])=C(C[N+]3(C)CCCC3)CS[C@H]12)c1csc(N)n1 [Cefepime] + O=C(N[C@H](CO)[C@H](O)c1ccc([N+](=O)[O-])cc1)C(Cl)Cl [Chloramphenicol] | 0.109 | 0.158 | 0.0591 | 0.149 | – | – | – | – |
| CCCCCCCCCC(=O)N[C@@H](Cc1c[nH]c2ccccc12)C(=O)N[C@H](CC(N)=O)C(=O)N[C@@H](CC(=O)O)C(=O)N[C@@H]1C(=O)NCC(=O)N[C@@H](CCCN)C(=O)N[C@@H](CC(=O)O)C(=O)N[C@H](C)C(=O)N[C@@H](CC(=O)O)C(=O)NCC(=O)N[C@H](CO)C(=O)N[C@@H]([C@H](C)CC(=O)O)C(=O)N[C@@H](CC(=O)c2ccccc2N)C(=O)O[C@@H]1C [Daptomycin] + CC[C@H]1OC(=O)[C@H](C)[C@@H](O[C@H]2C[C@@](C)(OC)[C@@H](O)[C@H](C)O2)[C@H](C)[C@@H](O[C@@H]2O[C@H](C)C[C@H](N(C)C)[C@H]2O)[C@](C)(O)C[C@@H](C)C(=O)[C@H](C)[C@@H](O)[C@]1(C)O [Erythromycin] | 0.102 | 0.0418 | -0.034 | -0.0815 | – | – | – | – |
| CO/N=C(\C(=O)N[C@@H]1C(=O)N2C(C(=O)[O-])=C(C[N+]3(C)CCCC3)CS[C@H]12)c1csc(N)n1 [Cefepime] + CN(C)[C@@H]1C(O)=C(C(N)=O)C(=O)[C@@]2(O)C(O)=C3C(=O)c4c(O)ccc(Cl)c4[C@@](C)(O)[C@H]3C[C@@H]12 [Clortetracycline] | 0.0651 | 0.0809 | 0.105 | 0.163 | – | – | – | – |
| CC1(C)S[C@@H]2[C@H](NC(=O)[C@H](N)c3ccc(O)cc3)C(=O)N2[C@H]1C(=O)O [Amoxicillin] + N[C@@H]1CONC1=O [CycloserineD] | 0.187 | -0.0593 | 0.035 | -0.108 | – | – | – | – |
| CO/N=C(\C(=O)N[C@@H]1C(=O)N2C(C(=O)[O-])=C(C[N+]3(C)CCCC3)CS[C@H]12)c1csc(N)n1 [Cefepime] + O=C(O)[C@H]1/C(=C/CO)O[C@@H]2CC(=O)N21 [Clavulanic] | -0.0808 | 0.0843 | 0.0605 | -0.0597 | – | – | – | – |
| CO/N=C(\C(=O)N[C@@H]1C(=O)N2C(C(=O)[O-])=C(C[N+]3(C)CCCC3)CS[C@H]12)c1csc(N)n1 [Cefepime] + COc1cccc2c1C(=O)c1c(O)c3c(c(O)c1C2=O)C[C@@](O)(C(=O)CO)C[C@@H]3O[C@H]1C[C@H](N)[C@H](O)[C@H](C)O1 [Doxorubicin] | -0.239 | -0.1 | -0.0429 | 0.0847 | – | – | – | – |
| CO/N=C(\C(=O)N[C@@H]1C(=O)N2C(C(=O)[O-])=C(C[N+]3(C)CCCC3)CS[C@H]12)c1csc(N)n1 [Cefepime] + CO[C@@]12[C@H](COC(N)=O)C3=C(C(=O)C(C)=C(N)C3=O)N1C[C@@H]1N[C@@H]12 [MitomycinC] | -0.153 | -0.0534 | 0.0543 | 0.125 | – | – | – | – |
| CO/N=C(\C(=O)N[C@@H]1C(=O)N2C(C(=O)[O-])=C(C[N+]3(C)CCCC3)CS[C@H]12)c1csc(N)n1 [Cefepime] + CC(=O)O[C@H]1C[C@@]2(C)[C@@H](C[C@@H](O)[C@H]3[C@@]4(C)CC[C@@H](O)[C@@H](C)[C@@H]4CC[C@@]32C)/C1=C(\CCC=C(C)C)C(=O)O [Fusidic acid] | 0.0845 | 0.062 | 0.0735 | 0.174 | – | – | – | – |
| CC1(C)S[C@@H]2[C@H](NC(=O)[C@H](N)c3ccc(O)cc3)C(=O)N2[C@H]1C(=O)O [Amoxicillin] + CN[C@H](CC(C)C)C(=O)N[C@H]1C(=O)N[C@@H](CC(N)=O)C(=O)N[C@H]2C(=O)N[C@H]3C(=O)N[C@H](C(=O)N[C@H](C(=O)O)c4cc(O)cc(O)c4-c4cc3ccc4O)[C@H](O[C@H]3C[C@](C)(N)[C@@H](O)[C@H](C)O3)c3ccc(c(Cl)c3)Oc3cc2cc(c3O[C@@H]2O[C@H](CO)[C@@H](O)[C@H](O)[C@H]2O[C@H]2C[C@](C)(NCc3ccc(-c4ccc(Cl)cc4)cc3)[C@@H](O)[C@H](C)O2)Oc2ccc(cc2Cl)[C@H]1O [Oritavancin] | 0.0439 | 0.0659 | 0.131 | -0.0312 | – | – | – | – |
| CO/N=C(\C(=O)N[C@@H]1C(=O)N2C(C(=O)[O-])=C(C[N+]3(C)CCCC3)CS[C@H]12)c1csc(N)n1 [Cefepime] + C[C@H]1c2cccc(O)c2C(=O)C2=C(O)[C@]3(O)C(=O)C(C(N)=O)=C(O)[C@@H](N(C)C)[C@@H]3[C@@H](O)[C@@H]21 [Doxycycline] | 0.0669 | 0.119 | 0.0446 | 0.203 | – | – | – | – |
| CO/N=C(\C(=O)N[C@@H]1C(=O)N2C(C(=O)[O-])=C(C[N+]3(C)CCCC3)CS[C@H]12)c1csc(N)n1 [Cefepime] + CC[C@H]1OC(=O)[C@H](C)C(=O)[C@H](C)[C@@H](O[C@@H]2O[C@H](C)C[C@H](N(C)C)[C@H]2O)[C@](C)(OC)C[C@@H](C)C(=O)[C@H](C)[C@H]2N(CCCCn3cnc(-c4cccnc4)c3)C(=O)O[C@]12C [Telithromycin] | 0.122 | 0.0789 | 0.0252 | -0.0487 | – | – | – | – |
| CO/N=C(\C(=O)N[C@@H]1C(=O)N2C(C(=O)[O-])=C(C[N+]3(C)CCCC3)CS[C@H]12)c1csc(N)n1 [Cefepime] + Oc1cc(Cl)ccc1Oc1ccc(Cl)cc1Cl [Triclosan] | 0.0502 | 0.0725 | -0.0285 | -0.0485 | – | – | – | – |
| Cn1nnc(-c2ccc(-c3ccc(N4C[C@H](CO)OC4=O)cc3F)cn2)n1 [Tedizolid] + CCCCCCCCCC(=O)N[C@@H]1[C@H]([C@@H]([C@H](O[C@H]1OC2=C3C=C4C=C2OC5=C(C=C(C=C5)[C@H]([C@H]6C(=O)N[C@@H](C7=C(C(=CC(=C7)O)OC8[C@H]([C@H]([C@@H]([C@H](O8)CO)O)O)O)C9=C(C=CC(=C9)[C@H](C(=O)N6)NC(=O)[C@@H]4NC(=O)[C@@H]1C2=CC(=CC(=C2)OC2=C(C=CC(=C2)[C@H](C(=O)N[C@H](CC2=CC(=C(O3)C=C2)Cl)C(=O)N1)N)O)O)O)C(=O)O)O[C@H]1[C@@H]([C@H]([C@@H]([C@H](O1)CO)O)O)NC(=O)C)Cl)CO)O)O [Teicoplanin] | – | – | – | – | 0.065 | -0.083 | 0.0811 | 0.295 |
| CC1(C)S[C@@H]2[C@H](NC(=O)[C@H](N)c3ccc(O)cc3)C(=O)N2[C@H]1C(=O)O [Amoxicillin] + CO[C@@]12[C@H](COC(N)=O)C3=C(C(=O)C(C)=C(N)C3=O)N1C[C@@H]1N[C@@H]12 [MitomycinC] | 0.0389 | -0.0743 | 0.0558 | 0.0839 | – | – | – | – |
| CN(C)C(=O)C(CCN1CCC(O)(c2ccc(Cl)cc2)CC1)(c1ccccc1)c1ccccc1 [Loperamide] + CN[C@H](CC(C)C)C(=O)N[C@H]1C(=O)N[C@@H](CC(N)=O)C(=O)N[C@H]2C(=O)N[C@H]3C(=O)N[C@H](C(=O)N[C@H](C(=O)O)c4cc(O)cc(O)c4-c4cc3ccc4O)[C@H](O[C@H]3C[C@](C)(N)[C@@H](O)[C@H](C)O3)c3ccc(c(Cl)c3)Oc3cc2cc(c3O[C@@H]2O[C@H](CO)[C@@H](O)[C@H](O)[C@H]2O[C@H]2C[C@](C)(NCc3ccc(-c4ccc(Cl)cc4)cc3)[C@@H](O)[C@H](C)O2)Oc2ccc(cc2Cl)[C@H]1O [Oritavancin] | 0.0335 | -0.11 | -0.062 | -0.0409 | – | – | – | – |
| CO/N=C(\C(=O)N[C@@H]1C(=O)N2C(C(=O)[O-])=C(C[N+]3(C)CCCC3)CS[C@H]12)c1csc(N)n1 [Cefepime] + CO[C@@H]1[C@@H](OC(N)=O)[C@@H](O)[C@H](Oc2ccc3c(O)c(NC(=O)c4ccc(O)c(CC=C(C)C)c4)c(=O)oc3c2C)OC1(C)C [Novobiocin] | -0.104 | 0.0654 | 0.0516 | -0.098 | – | – | – | – |
| CC1(C)S[C@@H]2[C@H](NC(=O)[C@H](N)c3ccc(O)cc3)C(=O)N2[C@H]1C(=O)O [Amoxicillin] + CC1(C)S[C@@H]2[C@H](NC(=O)Cc3ccccc3)C(=O)N2[C@H]1C(=O)O [PenicillinG] | -0.186 | -0.0644 | 0.0595 | -0.0781 | – | – | – | – |
| CCCSc1nc(N[C@@H]2C[C@H]2c2ccc(F)c(F)c2)c2nnn([C@@H]3C[C@H](OCCO)[C@@H](O)[C@H]3O)c2n1 [Ticagrelor] + CN(C)c1cc(NC(=O)CNC(C)(C)C)c(O)c2c1C[C@H]1C[C@H]3[C@H](N(C)C)C(O)=C(C(N)=O)C(=O)[C@@]3(O)C(O)=C1C2=O [Tigecycline] | – | 0.216 | – | – | – | – | – | – |
| CN(C)C(=O)C(CCN1CCC(O)(c2ccc(Cl)cc2)CC1)(c1ccccc1)c1ccccc1 [Loperamide] + C[C@H]1C[C@@H]2[C@H]([C@@H](O)C[C@@]3(C)[C@H]2CC[C@]3(O)C(=O)CO)[C@@]2(C)C=CC(=O)C=C12 [Methylprednisolone] | – | -0.341 | – | – | – | – | – | – |
| CCN(CC)C(=O)/C(C#N)=C/c1cc(O)c(O)c([N+](=O)[O-])c1 [Entacapone] + CN1C2=CC=CC=C2N=C3C1=CC=CC3=O [Pyocyanin] | – | -0.283 | – | – | – | – | – | – |
| CC1(C)S[C@@H]2[C@H](NC(=O)[C@H](N)c3ccc(O)cc3)C(=O)N2[C@H]1C(=O)O [Amoxicillin] + Cc1ccc(-c2cc(C(F)(F)F)nn2-c2ccc(S(N)(=O)=O)cc2)cc1 [Celecoxib] | – | 0.185 | – | – | – | – | – | – |
| CCCSc1nc(N[C@@H]2C[C@H]2c2ccc(F)c(F)c2)c2nnn([C@@H]3C[C@H](OCCO)[C@@H](O)[C@H]3O)c2n1 [Ticagrelor] + COc1cc(Cc2cnc(N)nc2N)cc(OC)c1OC [Trimethoprim] | – | -0.152 | – | – | – | – | – | – |
| CCN(CC)C(=O)/C(C#N)=C/c1cc(O)c(O)c([N+](=O)[O-])c1 [Entacapone] + CC(=O)NC[C@H]1CN(c2ccc(N3CCOCC3)c(F)c2)C(=O)O1 [Linezolid] | – | -0.178 | – | – | – | – | – | – |
| CN(C)C(=O)C(CCN1CCC(O)(c2ccc(Cl)cc2)CC1)(c1ccccc1)c1ccccc1 [Loperamide] + O=c1c(O)c(-c2ccc(O)c(O)c2)oc2cc(O)cc(O)c12 [Quercetin] | – | 0.242 | – | – | – | – | – | – |
| C[C@]12CC[C@@H]3c4ccc(O)cc4CC[C@H]3[C@@H]1CC[C@@H]2O [Estradiol] + CO[C@@]12[C@H](COC(N)=O)C3=C(C(=O)C(C)=C(N)C3=O)N1C[C@@H]1N[C@@H]12 [MitomycinC] | – | 0.179 | – | – | – | – | – | – |
| Cc1ccc(-c2cc(C(F)(F)F)nn2-c2ccc(S(N)(=O)=O)cc2)cc1 [Celecoxib] + CN(C)C(=O)C(CCN1CCC(O)(c2ccc(Cl)cc2)CC1)(c1ccccc1)c1ccccc1 [Loperamide] | – | -0.452 | – | – | – | – | – | – |
| C[C@H]1C[C@@H]2[C@H]([C@@H](O)C[C@@]3(C)[C@H]2CC[C@]3(O)C(=O)CO)[C@@]2(C)C=CC(=O)C=C12 [Methylprednisolone] + CC[C@H]1OC(=O)[C@H](C)C(=O)[C@H](C)[C@@H](O[C@@H]2O[C@H](C)C[C@H](N(C)C)[C@H]2O)[C@](C)(OC)C[C@@H](C)C(=O)[C@H](C)[C@H]2N(CCCCn3cnc(-c4cccnc4)c3)C(=O)O[C@]12C [Telithromycin] | – | -0.356 | – | – | – | – | – | – |
